Target: T1, Prostaglandin G/H synthase 2 (Mus musculus, UniProt Q05769)
T1 sequence (Q05769 whole entry): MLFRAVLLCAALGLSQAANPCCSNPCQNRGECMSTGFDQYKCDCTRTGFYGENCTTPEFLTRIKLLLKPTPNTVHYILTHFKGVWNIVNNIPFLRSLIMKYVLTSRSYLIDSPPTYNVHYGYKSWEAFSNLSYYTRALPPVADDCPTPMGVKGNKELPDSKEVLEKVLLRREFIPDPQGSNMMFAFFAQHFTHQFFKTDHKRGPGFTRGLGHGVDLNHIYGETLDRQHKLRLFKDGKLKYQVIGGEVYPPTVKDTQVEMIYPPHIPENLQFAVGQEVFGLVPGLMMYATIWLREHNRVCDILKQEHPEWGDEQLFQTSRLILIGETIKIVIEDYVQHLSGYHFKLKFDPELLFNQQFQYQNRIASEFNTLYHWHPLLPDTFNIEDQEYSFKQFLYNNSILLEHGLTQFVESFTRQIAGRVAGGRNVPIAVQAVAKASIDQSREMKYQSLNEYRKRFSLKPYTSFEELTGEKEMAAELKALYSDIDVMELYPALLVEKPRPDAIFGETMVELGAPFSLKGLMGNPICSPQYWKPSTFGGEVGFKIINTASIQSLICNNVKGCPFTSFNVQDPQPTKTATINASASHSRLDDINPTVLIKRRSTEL
Assay: Inhibition of COX2 in Mus musculus (mouse) peritoneal macrophage

Row | Structure (SMILES) | IC50 [pM]
1 | CS(=O)(=O)c1ccc(-c2[nH]c3ccccc3c2-c2ccccc2)cc1 | 603
2 | NS(=O)(=O)c1ccc(-c2[nH]c3ccc(Cl)cc3c2-c2ccccc2)cc1 | 141
3 | CC(=O)NS(=O)(=O)c1ccc(-c2[nH]c3ccccc3c2-c2ccccc2)cc1 | 178
4 | NS(=O)(=O)c1ccc(-c2[nH]c3ccccc3c2-c2ccc(Cl)cc2)cc1 | 33100
5 | Cc1ccc(-c2c(-c3ccc(S(C)(=O)=O)cc3)[nH]c3ccccc23)cc1C | 170
6 | Cc1ccc2[nH]c(-c3ccc(S(C)(=O)=O)cc3)c(-c3ccccc3)c2c1 | 282

These reach a lower IC50. Values come first.

Row | IC50 [pM] | Structure (SMILES)
7 | 20 | COc1ccc(-c2c(-c3ccc(S(C)(=O)=O)cc3)[nH]c3ccccc23)cc1
8 | 89.1 | NS(=O)(=O)c1ccc(-c2[nH]c3ccccc3c2-c2ccccc2)cc1
9 | 20 | Cc1ccc2[nH]c(-c3ccc(S(N)(=O)=O)cc3)c(-c3ccccc3)c2c1
